Measurements from patent EP0551518A1, “QUINOLINECARBOXYLIC ACID DERIVATIVE” (NIPPON SHINYAKU COMPANY, LIMITED, priority 1990, dated 1992).
In brackets after ≈: the same amount, converted by molar mass. Where a name gives a salt, the structure may show the parent alone. Read-outs that look alike come from different tables or passages of the source.

How the values were obtained:
Assay type in all cases: cell-based
[1] = tested on: Staphylococcus aureus 209-P JC-1; assay: Determination of minimal inhibitory concentration of growth (MIC)-1, agar plate dilution method; conditions: Staphylococcus aureus 209-P JC-1, agar plate dilution, 10⁶ CFU/ml, 37°C, 18 hours
Protocol: (§1) Method: MIC was determined by the agar plate dilution method in accordance with the standard protocol of Japan Society of Chemotherapy (cf. Chemotherapy 29 (1), 76-79, 1981). Each bacterial culture obtained by 18-hour incubation in a sensitivity assay bouillon medium at 37°C was diluted to 10⁶ CFU/ml with the same medium. Using a microplanter, a sensitivity assay agar medium containing the test drug was inoculated with the diluted culture and incubated at 37°C for 18 hours. The MIC value was then determined. As reference drugs, 6-fluoro-1-methyl-4-oxo-7-(1-piperazinyl)-4H-[1,3]thiazeto[3,2-a]quinoline-3-carboxylic acid (referred to as control), ciprofloxacin (CPFX) and ofloxacin (OFLX) were used.

[2] = tested on: Proteus vulgaris HX-19; assay: as above; conditions: Proteus vulgaris HX-19, agar plate dilution, 10⁶ CFU/ml, 37°C, 18 hours
Protocol: as §1

[3] = tested on: Staphylococcus epider-midis IFO 12993; assay: as above; conditions: Staphylococcus epider-midis IFO 12993, agar plate dilution, 10⁶ CFU/ml, 37°C, 18 hours
Protocol: as §1

[4] = tested on: Enterococcus faecalis ATCC 29212; assay: as above; conditions: Enterococcus faecalis ATCC 29212, agar plate dilution, 10⁶ CFU/ml, 37°C, 18 hours
Protocol: as §1

[5] = tested on: Staphylococcus aureus Smith; assay: as above; conditions: Staphylococcus aureus Smith, agar plate dilution, 10⁶ CFU/ml, 37°C, 18 hours
Protocol: as §1

[6] = tested on: Staphylococcus aureus OWPH 2125 (MRSA, PCA^r ); assay: as above; conditions: Staphylococcus aureus OWPH 2125 (MRSA, PCA^r), agar plate dilution, 10⁶ CFU/ml, 37°C, 18 hours
Protocol: as §1

[7] = tested on: Bacillus subtilis ATCC 6633; assay: as above; conditions: Bacillus subtilis ATCC 6633, agar plate dilution, 10⁶ CFU/ml, 37°C, 18 hours
Protocol: as §1

[8] = tested on: Pseudomonas aeruginosa IFO 3445; assay: as above; conditions: Pseudomonas aeruginosa IFO 3445, agar plate dilution, 10⁶ CFU/ml, 37°C, 18 hours
Protocol: as §1

[9] = tested on: Escherichia coli KC-14; assay: as above; conditions: 10⁶ CFU/ml, 37°C
Protocol: as §1

[10] = tested on: Staphylococcus aureus OWPH 1984 (MRSA); assay: as above; conditions: Staphylococcus aureus OWPH 1984 (MRSA), agar plate dilution, 10⁶ CFU/ml, 37°C, 18 hours
Protocol: as §1

[11] = tested on: Micrococcus luteus ATCC 9341; assay: as above; conditions: Micrococcus luteus ATCC 9341, agar plate dilution, 10⁶ CFU/ml, 37°C, 18 hours
Protocol: as §1

[12] = tested on: S. aureus OWPH 2134; assay: Determination of minimal inhibitory concentration (MIC)-2, new quinolone-resistant MRSA; conditions: Staphylococcus aureus, OWPH2134, 18 h; S. aureus OWPH 2134, new quinolone-resistant and methicillin-resistant; same procedure as Test Example 1
Protocol: as §1
(§2) The antibacterial activity of the compounds obtained in Example 4, Example 25 and Example 26 of the present invention was assayed by the same procedure as in Test Example 1. As reference drugs, 6-fluoro-1-methyl-4-oxo-7-(1-piperazinyl)-4H-[1,3]-thiazeto[3,2-a]quinoline-3-carboxylic acid (referred to as Control), norfloxacin (NFLX) and tosufloxacin (TFLX) were used.

[13] = tested on: S. aureus OWPH 1786; assay: as above; conditions: Staphylococcus aureus, OWPH1786, 18 h; S. aureus OWPH 1786, new quinolone-resistant and methicillin-resistant; same procedure as Test Example 1
Protocol: as §1, §2

[14] = tested on: S. aureus OWPH 1770; assay: as above; conditions: Staphylococcus aureus, OWPH1770, 18 h; S. aureus OWPH 1770, new quinolone-resistant and methicillin-resistant; same procedure as Test Example 1
Protocol: as §1, §2

[15] = tested on: S. aureus OWPH 1792; assay: as above; conditions: Staphylococcus aureus, OWPH1792, 18 h; S. aureus OWPH 1792, new quinolone-resistant and methicillin-resistant; same procedure as Test Example 1
Protocol: as §1, §2

[16] = tested on: S. aureus OWPH 2133; assay: as above; conditions: Staphylococcus aureus, OWPH2133, 18 h; S. aureus OWPH 2133, new quinolone-resistant and methicillin-resistant; same procedure as Test Example 1
Protocol: as §1, §2

[17] = tested on: S. aureus Sh 47; assay: as above; conditions: Staphylococcus aureus, SH47, 18 h; S. aureus Sh 47, new quinolone-resistant and methicillin-resistant; same procedure as Test Example 1
Protocol: as §1, §2

[18] = tested on: S. aureus OWPH 2128; assay: as above; conditions: Staphylococcus aureus, OWPH2128, 18 h; S. aureus OWPH 2128, new quinolone-resistant and methicillin-resistant; same procedure as Test Example 1
Protocol: as §1, §2

[19] = tested on: S. aureus OWPH 2127; assay: as above; conditions: Staphylococcus aureus, OWPH2127, 18 h; S. aureus OWPH 2127, new quinolone-resistant and methicillin-resistant; same procedure as Test Example 1
Protocol: as §1, §2

[20] = tested on: S. aureus OWPH 2124; assay: as above; conditions: Staphylococcus aureus, OWPH2124, 18 h; S. aureus OWPH 2124, new quinolone-resistant and methicillin-resistant; same procedure as Test Example 1
Protocol: as §1, §2

[21] = tested on: S. aureus OWPH 1793; assay: as above; conditions: Staphylococcus aureus, OWPH1793, 18 h; S. aureus OWPH 1793, new quinolone-resistant and methicillin-resistant; same procedure as Test Example 1
Protocol: as §1, §2

[22] = tested on: S. aureus OWPH 1773; assay: as above; conditions: Staphylococcus aureus, OWPH1773, 18 h; S. aureus OWPH 1773, new quinolone-resistant and methicillin-resistant; same procedure as Test Example 1
Protocol: as §1, §2

[23] = tested on: S. aureus Sh 8; assay: as above; conditions: Staphylococcus aureus, SH8, 18 h; S. aureus Sh 8, new quinolone-resistant and methicillin-resistant; same procedure as Test Example 1
Protocol: as §1, §2

[24] = tested on: S. aureus Sh 44; assay: as above; conditions: Staphylococcus aureus, SH44, 18 h; S. aureus Sh 44, new quinolone-resistant and methicillin-resistant; same procedure as Test Example 1
Protocol: as §1, §2

[25] = tested on: S. aureus Sh 54; assay: as above; conditions: Staphylococcus aureus, SH54, 18 h; S. aureus Sh 54, new quinolone-resistant and methicillin-resistant; same procedure as Test Example 1
Protocol: as §1, §2

[26] = tested on: S. aureus OWPH 1796; assay: as above; conditions: Staphylococcus aureus, OWPH1796, 18 h; S. aureus OWPH 1796, new quinolone-resistant and methicillin-resistant; same procedure as Test Example 1
Protocol: as §1, §2

[27] = tested on: S. aureus Sh 2; assay: as above; conditions: Staphylococcus aureus, SH2, 18 h; S. aureus Sh 2, new quinolone-resistant and methicillin-resistant; same procedure as Test Example 1
Protocol: as §1, §2

[28] = tested on: S. aureus OWPH 1799; assay: as above; conditions: Staphylococcus aureus, OWPH1799, 18 h; S. aureus OWPH 1799, new quinolone-resistant and methicillin-resistant; same procedure as Test Example 1
Protocol: as §1, §2

[29] = Proteus vulgaris, HX19, 18 h, read-out: MIC
[30] = Staphylococcus, IFO12993, 18 h, read-out: MIC
[31] = Staphylococcus aureus, MRSA, 18 h, read-out: MIC
[32] = Pseudomonas aeruginosa, IFO3445, 18 h, read-out: MIC
[33] = Escherichia coli, KC14, 18 h, read-out: MIC

| Compound | MIC [2, 29] | MIC [3, 30] | MIC ([4]; ATCC29212, read-out: MIC) | MIC [12] | MIC [13] | MIC [14] | MIC [15] | MIC [16] | MIC [17] | MIC [18] | MIC [19] | MIC [20] | MIC [21] | MIC [22] | MIC [23] | MIC [24] | MIC [25] | MIC [26] | MIC [27] | MIC [28] | further results |
| --- | --- | --- | --- | --- | --- | --- | --- | --- | --- | --- | --- | --- | --- | --- | --- | --- | --- | --- | --- | --- | --- |
| CC1Sc2c(C(=O)O)c(=O)c3cc(F)c(N4CCNCC4)cc3n21 (centres unmarked) [Control, 6-fluoro-1-methyl-4-oxo-7-(1-piperazinyl)-4H-[1,3]thiazeto[3,2-a]quinoline-3-carboxylic acid, reference compound] | 0.025 mg/L (≈ 0.0716 µM) | 0.2 mg/L (≈ 0.572 µM) | 0.39 mg/L (≈ 1.12 µM) | 50 mg/L (≈ 143 µM) | > 100 mg/L | 50 mg/L (≈ 143 µM) | 100 mg/L (≈ 286 µM) | 25 mg/L (≈ 71.6 µM) | 100 mg/L (≈ 286 µM) | > 100 mg/L | > 100 mg/L | 12.5 mg/L (≈ 35.8 µM) | > 100 mg/L | 100 mg/L (≈ 286 µM) | 100 mg/L (≈ 286 µM) | 50 mg/L (≈ 143 µM) | > 100 mg/L | 25 mg/L (≈ 71.6 µM) | 100 mg/L (≈ 286 µM) | > 100 mg/L | MIC ([1]; Staphylococcus aureus, 209P, 18 h, read-out: MIC): 0.1 mg/L (≈ 0.286 µM); MIC ([5]; read-out: MIC): 0.1 mg/L (≈ 0.286 µM); MIC [6, 31]: 12.5 mg/L (≈ 35.8 µM); MIC ([7]; ATCC6633, read-out: MIC): 0.1 mg/L (≈ 0.286 µM); MIC [8, 32]: 0.05 mg/L (≈ 0.143 µM); MIC [9, 33]: 0.012 mg/L (≈ 0.0343 µM); MIC [10, 31]: 0.39 mg/L (≈ 1.12 µM); MIC ([11]; ATCC9341, read-out: MIC): 1.56 mg/L (≈ 4.46 µM) |
| CC1Sc2c(C(=O)O)c(=O)c3cc(F)c(-c4ccc(N)cc4)cc3n21 (centres unmarked) [Example 4, 7-(4-Aminophenyl)-6-fluoro-1-methyl-4-oxo-4H-[1,3]thia-zeto[3,2-a]quinoline-3-carboxylic acid] | 0.012 mg/L (≈ 0.0337 µM) | ≤ 0.006 mg/L | 0.05 mg/L (≈ 0.14 µM) | 0.78 mg/L (≈ 2.19 µM) | 1.56 mg/L (≈ 4.38 µM) | 0.2 mg/L (≈ 0.561 µM) | 0.78 mg/L (≈ 2.19 µM) | 0.78 mg/L (≈ 2.19 µM) | 0.78 mg/L (≈ 2.19 µM) | 1.56 mg/L (≈ 4.38 µM) | 1.56 mg/L (≈ 4.38 µM) | 0.78 mg/L (≈ 2.19 µM) | 1.56 mg/L (≈ 4.38 µM) | 0.78 mg/L (≈ 2.19 µM) | 0.78 mg/L (≈ 2.19 µM) | 0.78 mg/L (≈ 2.19 µM) | 0.78 mg/L (≈ 2.19 µM) | 0.78 mg/L (≈ 2.19 µM) | 0.78 mg/L (≈ 2.19 µM) | 1.56 mg/L (≈ 4.38 µM) | MIC [1]: 0.012 μ g/ml; MIC ([5]; read-out: MIC): ≤ 0.006 mg/L; MIC [6]: ≤ 0.006 μ g/ml; MIC ([7]; ATCC6633, read-out: MIC): ≤ 0.006 mg/L; MIC [8, 32]: 0.1 mg/L (≈ 0.281 µM); MIC [9, 33]: 0.025 mg/L (≈ 0.0702 µM); MIC [10, 31]: ≤ 0.006 mg/L; MIC ([11]; ATCC9341, read-out: MIC): 0.2 mg/L (≈ 0.561 µM) |
| CC1Sc2c(C(=O)O)c(=O)c3cc(F)c(-c4ccc(N)cc4)cc3n21 (centres unmarked) [Example 56, 7-(4-Aminophenyl)-6-fluoro-1-methyl-4-oxo-4H-[1,3]thiazeto[3,2-a]quinoline-3-carboxylic acid 1/2 sulfate] |  |  |  |  |  |  |  |  |  |  |  |  |  |  |  |  |  |  |  |  | MIC [1]: 0.025 μ g/ml; MIC [2]: ≤ 0.006 μ g/ml; MIC [3]: 0.012 μ g/ml; MIC [4]: 0.05 μ g/ml; MIC [5]: ≤ 0.006 μ g/ml; MIC [6]: 0.05 μ g/ml; MIC [7]: ≤ 0.006 μ g/ml; MIC [8]: 0.20 μ g/ml; MIC ([9]; 18 hours): 0.05 μ g/ml; MIC [10]: 0.012 μ g/ml; MIC [11]: 0.20 μ g/ml |
| CCn1cc(C(=O)O)c(=O)c2cc(F)c(N3CCNCC3)cc21 [NFLX, norfloxacin, reference compound] |  |  |  | > 100 mg/L | > 100 mg/L | > 100 mg/L | > 100 mg/L | > 100 mg/L | > 100 mg/L | > 100 mg/L | > 100 mg/L | > 100 mg/L | > 100 mg/L | > 100 mg/L | > 100 mg/L | > 100 mg/L | > 100 mg/L | > 100 mg/L | > 100 mg/L | > 100 mg/L |  |
| NC1CCN(c2nc3c(cc2F)c(=O)c(C(=O)O)cn3-c2ccc(F)cc2F)C1 (centres unmarked) [TFLX, tosufloxacin, reference compound] |  |  |  | > 100 mg/L | > 100 mg/L | > 100 mg/L | > 100 mg/L | > 100 mg/L | > 100 mg/L | > 100 mg/L | > 100 mg/L | 12.5 mg/L (≈ 30.9 µM) | > 100 mg/L | > 100 mg/L | > 100 mg/L | > 100 mg/L | > 100 mg/L | > 100 mg/L | > 100 mg/L | > 100 mg/L |  |
